Laboratory results taken from patent US4772704A, “2,5-disubstituted-4(3H)-pyrimidones having histamine H2 -receptor antagonist activity” (Bristol-Myers Company, priority 1983, dated 1988).

Key:
[1] = cited from earlier work
[2] = system: histamine-stimulated gastric acid output; test: Gastric Antisecretory Activity In The Heidenhain Pouch Dog; assay type: in vivo, female dogs
Procedure: Determination of Gastric Antisecretory Activity In The Heidenhain Pouch Dog
Prior to surgery, hematology and blood chemistry profiles are obtained and an assessment made as to the general health of selected female dogs. Dogs are vaccinated with Tissue Vax 5 (DHLP--Pitman-Moore) and housed in general animal quarters for four weeks' observation so incipient diseases may become apparent. Dogs are fasted with water ad libitum 24 hours prior to surgery.
Anesthesia is induced with Sodium Pentothal (Abbott) 25-30 mg/kg iv. Subsequent anesthesia is maintained with methoxyflurane (Pitman-Moore). A midline linea alba incision from xiphoid to umbilicus provides good exposure and ease of closure. The stomach is pulled up into the operative field, the greater curvature stretched out at multiple points and clamps placed along the selected line of incision. The pouch is made from the corpus of the stomach so that true parietal cell juice is obtained. About 30% of the corpus volume is resected. The cannula is made of light-weight,biologically-inert material such as nylon or Delrin with dimensions and attachments after DeVito and Harkins (J. Appl. Physiol., 14, 138 (1959). Post operatively, dogs are medicated with antibiotics and an analgesic. They are allowed 2-3 months for recovery. Experiments are carried out in the following way: Dogs are fasted overnight (≈18 hours) with water ad libitum prior to each experiment. The dogs are placed in a sling and a saphenous vein cannulated for drug administration. Histamine as the base (100 μg/kg/hr) and chlorpheniramine maleate (0.25 mg/kg/hr) are infused continuously (in a volume of 6 ml/hr) with a Harvard infusion pump.
Ninety minutes' infusion are allowed for the dogs to reach a steady state of acid output. At this time the drug or normal saline (control) is administered concomitantly with the secretagogue in a volume of 0.5 ml/kg over a 30 second period. When oral studies are to be carried out, the drug is administered via gastric gavage in a volume of 5 ml/kg. Infusion of the secretagogue is continued and 15 minute samples of the gastric juice are taken for 4.5 hours. Each sample is measured to the nearest 0.5 ml and titratable acidity is determined by titrating a 1 ml sample to pH 7.0 with 0.2N NaOH, using an Autoburet and an electrometric pH meter (Radiometer). Titratable acid output is calculated in microequivalents by multiplying the volume in milliliters by the acid concentration in milliequivalents per liter.
Results are expressed as percent inhibition relative to control readings and the response is the average for five dogs at that dose level.

histamine H2-receptor [3] = conditions: relative to burimamide or metiamide; cited from earlier work
gastric acid secretion = test: Gastric Antisecretory Activity in the Gastric Fistula Rat; assay type: in vivo, Male Long Evans rats; conditions: sc
Procedure: Determination of Gastric Antisecretory Activity in the Gastric Fistula Rat Male Long Evans rats weighing about 240-260 grams at the time of cannula implantation are used. […] The fistula components are designed and the operative procedure is carried out exactly as described in the above reference. Post operatively the animals are individually housed in solid bottom cages with sawdust and are allowed food and water ad libitum throughout the entire recovery period. Animals are not used for test purposes for at least 15 days after the operative procedure. The animals are fasted but allowed water ad libitum for 20 hours before the testing procedure is to begin. […] The catheter is then screwed into the cannula in place of the plugging screw and the rat is placed in a clear plastic rectangular cage measuring 40 cm long, 15 cm wide and 13 cm high. The bottom of the cage has a slit approximately 1.5 cm wide and 25 cm long running down the center to accommodate the catheter which hangs through it. […] Chem. Path. […] Titratable acid output is calculated in microequivalents by multiplying the volume in milliliters by the acid concentration in milliequivalents per liter. Results are expressed as percent inhibition relative to control readings. Dose response curves are constructed and ED50 values are calculated by regression analyses. […]

histamine H2-receptor [4] = conditions: man; cited from earlier work

## CNC(=S)NCCCCc1cnc[nH]1 [Burimamide]
[1]
  oral absorption: poor

## CNC(=NC#N)NCCSCc1nc[nH]c1C [Cimetidine, reference compound]
[2]; Intravenous, dose 6.0 μmoles/kg, Heidenhain pouch dog
  % Maximum Inhibition: 94%
[2]; Oral, dose 12.0 μmoles/kg, Heidenhain pouch dog
  % Maximum Inhibition: 95%
Histamine H2-receptor [3]
  potency or effectiveness as histamine H2-antagonist, relative: as effective an histamine H2 -antagonist as metiamide

## Nc1cnc(NCCCOc2cccc(CN3CCCCC3)c2)[nH]c1=O [Example 2, 5-Amino-2-[3-(3-piperidinomethylphenoxy)propylamino]-4(3H)-pyrimidone]
Gastric acid secretion
  ED50: 0.15 µmol/kg
Gastric acid secretion; cimetidine = 1.0
  Potency Ratio [cimetidine = 1.0]: 26
[2]; Intravenous, single dose 0.094 μmoles/kg, 5 dogs
  % Maximum Inhibition: 90%
[2]; Intravenous
  Potency Ratio [cimetidine = 1.0]: 50
[2]; Oral, single dose 0.5 μmoles/kg, 5 dogs
  % Maximum Inhibition: 86%
[2]; Oral
  Potency Ratio [cimetidine = 1.0]: 20
[2]; both the intravenous and oral dog models
  duration of antisecretory action relative to cimetidine: prolonged duration of action relative to cimetidine

## CNC(=S)NCCSCc1nc[nH]c1C [Metiamide]
Histamine H2-receptor [3]
  potency or effectiveness as histamine H2-antagonist, relative: more potent than burimamide
Histamine H2-receptor [4]
  oral activity: orally active in man
